Molecular target: Aβ42 (Homo sapiens, UniProt P05067)
Experiment: Th-T (thioflavin-T) assay of Aβ42 aggregation
Assay type: biochemical
Conditions: for Th-T fluorescence, mean of three wells: Aβ42 aggregation time course

Chain of Aβ42 (P05067 672-713): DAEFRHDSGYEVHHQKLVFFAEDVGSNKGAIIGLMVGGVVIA

C=C1CC[C@@H]2[C@](C)(CC[C@H]3O[C@H](C=C(C)C)C[C@@]23C)[C@@H]1Cc1c(OC)oc(CO)c(C)c1=O [Compound 20]
delay of the nucleation phase: no delay
elongation of Aβ42: partly suppressed the elongation of Aβ42
first Th-T assay result (Aβ42 (10 μM) ± DPPs (20 μM), room temperature): slightly suppressed
Th-T fluorescence, mean of three wells (reading M117): 4.214
Th-T fluorescence, mean of three wells (reading M118): 4.194
Th-T fluorescence, mean of three wells (reading M119): 4.178
Th-T fluorescence, mean of three wells (reading M120): 4.1845
Th-T fluorescence, mean of three wells (reading M121): 4.166
Th-T fluorescence, mean of three wells (reading M122): 4.139
Th-T fluorescence, mean of three wells (reading M123): 4.16
Th-T fluorescence, mean of three wells (reading M124): 4.194
Th-T fluorescence, mean of three wells (reading M125): 4.155
Th-T fluorescence, mean of three wells (reading M126): 4.13
Th-T fluorescence, mean of three wells (reading M127): 4.172
Th-T fluorescence, mean of three wells (reading M128): 4.137
Th-T fluorescence, mean of three wells (reading M129): 4.1254
Th-T fluorescence, mean of three wells (reading M130): 4.128
Th-T fluorescence, mean of three wells (Fig. 7a) (column suffix _10, measurement M19): 3.317
Th-T fluorescence, mean of three wells (Fig. 7a) (column suffix _10, measurement M20): 3.391
Th-T fluorescence, mean of three wells (Fig. 7a) (column suffix _10, measurement M21): 3.434
Th-T fluorescence, mean of three wells (Fig. 7a) (column suffix _10, measurement M22): 3.448
Th-T fluorescence, mean of three wells (Fig. 7a) (column suffix _10, measurement M23): 3.464
Th-T fluorescence, mean of three wells (Fig. 7a) (column suffix _10, measurement M24): 3.465
Th-T fluorescence, mean of three wells (Fig. 7a) (column suffix _10, measurement M25): 3.454
Th-T fluorescence, mean of three wells (Fig. 7a) (column suffix _10, measurement M26): 3.452
Th-T fluorescence, mean of three wells (Fig. 7a) (column suffix _10, measurement M27): 3.468
Th-T fluorescence, mean of three wells (Fig. 7a) (column suffix _10, measurement M28): 3.469
Th-T fluorescence, mean of three wells (Fig. 7a) (column suffix _10, measurement M29): 3.45
Th-T assay signal, mean of three wells (Fig. 7a) (column suffix _10, reading M1): 0.2292
Th-T assay signal, mean of three wells (Fig. 7a) (column suffix _10, reading M2): 0.2545
Th-T assay signal, mean of three wells (Fig. 7a) (column suffix _10, reading M3): 0.2762
Th-T assay signal, mean of three wells (Fig. 7a) (column suffix _10, reading M4): 0.324
Th-T assay signal, mean of three wells (Fig. 7a) (column suffix _10, reading M5): 0.3535
Th-T assay signal, mean of three wells (Fig. 7a) (column suffix _10, reading M6): 0.4731
Th-T assay signal, mean of three wells (Fig. 7a) (column suffix _10, reading M7): 0.5173
Th-T assay signal, mean of three wells (Fig. 7a) (column suffix _10, reading M8): 0.5644
Th-T assay signal, mean of three wells (Fig. 7a) (column suffix _10, reading M9): 0.6382
Th-T assay signal, mean of three wells (Fig. 7a) (column suffix _10, reading M10): 0.6392
Th-T assay signal, mean of three wells (Fig. 7a) (column suffix _10, reading M11): 0.7204
Th-T assay signal, mean of three wells (Fig. 7a) (column suffix _10, reading M12): 0.8506
Th-T assay signal, mean of three wells (Fig. 7a) (column suffix _10, reading M13): 1.108
Th-T assay signal, mean of three wells (Fig. 7a) (column suffix _10, reading M14): 1.585
Th-T assay signal, mean of three wells (Fig. 7a) (column suffix _10, reading M15): 2.1202
Th-T assay signal, mean of three wells (Fig. 7a) (column suffix _10, reading M16): 2.635
Th-T assay signal, mean of three wells (Fig. 7a) (column suffix _10, reading M17): 2.976
Th-T assay signal, mean of three wells (Fig. 7a) (column suffix _10, reading M18): 3.206
Fig. 7a Th-T reading, mean of three wells (column suffix _10, reading M85): 3.354
Fig. 7a Th-T reading, mean of three wells (column suffix _10, reading M86): 3.35
Fig. 7a Th-T reading, mean of three wells (column suffix _10, reading M87): 3.36
Fig. 7a Th-T reading, mean of three wells (column suffix _10, reading M88): 3.344
Fig. 7a Th-T reading, mean of three wells (column suffix _10, reading M89): 3.359
Fig. 7a Th-T reading, mean of three wells (column suffix _10, reading M90): 3.344
Fig. 7a Th-T reading, mean of three wells (column suffix _10, reading M91): 3.334
Fig. 7a Th-T reading, mean of three wells (column suffix _10, reading M92): 3.329
Fig. 7a Th-T reading, mean of three wells (column suffix _10, reading M93): 3.316
Fig. 7a Th-T reading, mean of three wells (column suffix _10, reading M94): 3.328
Fig. 7a Th-T reading, mean of three wells (column suffix _10, reading M95): 3.309
Fig. 7a Th-T reading, mean of three wells (column suffix _10, reading M96): 3.312
Fig. 7a Th-T reading, mean of three wells (column suffix _10, reading M97): 3.295
Fig. 7a Th-T reading, mean of three wells (column suffix _10, reading M98): 3.318
Fig. 7a Th-T reading, mean of three wells (column suffix _10, reading M99): 3.3
Fig. 7a Th-T reading, mean of three wells (column suffix _10, reading M100): 3.294
Fig. 7a Th-T reading, mean of three wells (column suffix _10, reading M101): 3.313
Fig. 7a Th-T reading, mean of three wells (column suffix _10, reading M102): 3.28
Fig. 7a Th-T reading, mean of three wells (column suffix _10, reading M103): 3.294
Fig. 7a Th-T reading, mean of three wells (column suffix _10, reading M104): 3.29
Fig. 7a Th-T reading, mean of three wells (column suffix _10, reading M105): 3.266
Fig. 7a Th-T reading, mean of three wells (column suffix _10, reading M106): 3.268
Th-T fluorescence, mean of three wells (Fig. 7a) (column suffix _20, measurement M19): 3.146
Th-T fluorescence, mean of three wells (Fig. 7a) (column suffix _20, measurement M20): 3.22
Th-T fluorescence, mean of three wells (Fig. 7a) (column suffix _20, measurement M21): 3.265
Th-T fluorescence, mean of three wells (Fig. 7a) (column suffix _20, measurement M22): 3.294
Th-T fluorescence, mean of three wells (Fig. 7a) (column suffix _20, measurement M23): 3.285
Th-T fluorescence, mean of three wells (Fig. 7a) (column suffix _20, measurement M24): 3.3066
Th-T fluorescence, mean of three wells (Fig. 7a) (column suffix _20, measurement M25): 3.328
Th-T fluorescence, mean of three wells (Fig. 7a) (column suffix _20, measurement M26): 3.367
Th-T fluorescence, mean of three wells (Fig. 7a) (column suffix _20, measurement M27): 3.353
Th-T fluorescence, mean of three wells (Fig. 7a) (column suffix _20, measurement M28): 3.346
Th-T fluorescence, mean of three wells (Fig. 7a) (column suffix _20, measurement M29): 3.34
Th-T fluorescence, mean of three wells (Fig. 7a) (column suffix _20, measurement M30): 3.361
Th-T assay signal, mean of three wells (Fig. 7a) (column suffix _20, reading M1): 0.2139
Th-T assay signal, mean of three wells (Fig. 7a) (column suffix _20, reading M2): 0.2391
Th-T assay signal, mean of three wells (Fig. 7a) (column suffix _20, reading M3): 0.2688
Th-T assay signal, mean of three wells (Fig. 7a) (column suffix _20, reading M4): 0.2877
Th-T assay signal, mean of three wells (Fig. 7a) (column suffix _20, reading M5): 0.33
Th-T assay signal, mean of three wells (Fig. 7a) (column suffix _20, reading M6): 0.4061
Th-T assay signal, mean of three wells (Fig. 7a) (column suffix _20, reading M7): 0.4716
Th-T assay signal, mean of three wells (Fig. 7a) (column suffix _20, reading M8): 0.5038
Th-T assay signal, mean of three wells (Fig. 7a) (column suffix _20, reading M9): 0.5302
Th-T assay signal, mean of three wells (Fig. 7a) (column suffix _20, reading M10): 0.5653
Th-T assay signal, mean of three wells (Fig. 7a) (column suffix _20, reading M11): 0.6147
Th-T assay signal, mean of three wells (Fig. 7a) (column suffix _20, reading M12): 0.7691
Th-T assay signal, mean of three wells (Fig. 7a) (column suffix _20, reading M13): 1.152
Th-T assay signal, mean of three wells (Fig. 7a) (column suffix _20, reading M14): 1.832
Th-T assay signal, mean of three wells (Fig. 7a) (column suffix _20, reading M15): 2.436
Th-T assay signal, mean of three wells (Fig. 7a) (column suffix _20, reading M16): 2.813
Th-T assay signal, mean of three wells (Fig. 7a) (column suffix _20, reading M17): 2.993
Th-T assay signal, mean of three wells (Fig. 7a) (column suffix _20, reading M18): 3.081
Fig. 7a Th-T reading, mean of three wells (column suffix _20, reading M85): 3.286
Fig. 7a Th-T reading, mean of three wells (column suffix _20, reading M86): 3.29
Fig. 7a Th-T reading, mean of three wells (column suffix _20, reading M87): 3.2956
Fig. 7a Th-T reading, mean of three wells (column suffix _20, reading M88): 3.332
Fig. 7a Th-T reading, mean of three wells (column suffix _20, reading M89): 3.367
Fig. 7a Th-T reading, mean of three wells (column suffix _20, reading M90): 3.341
Fig. 7a Th-T reading, mean of three wells (column suffix _20, reading M91): 3.299
Fig. 7a Th-T reading, mean of three wells (column suffix _20, reading M92): 3.303
Fig. 7a Th-T reading, mean of three wells (column suffix _20, reading M93): 3.313
Fig. 7a Th-T reading, mean of three wells (column suffix _20, reading M94): 3.332
Fig. 7a Th-T reading, mean of three wells (column suffix _20, reading M95): 3.309
Fig. 7a Th-T reading, mean of three wells (column suffix _20, reading M96): 3.268
Fig. 7a Th-T reading, mean of three wells (column suffix _20, reading M97): 3.26
Fig. 7a Th-T reading, mean of three wells (column suffix _20, reading M98): 3.269
Fig. 7a Th-T reading, mean of three wells (column suffix _20, reading M99): 3.3
Fig. 7a Th-T reading, mean of three wells (column suffix _20, reading M100): 3.292

From publication PMC7156458, “Synthetic biology based construction of biological activity-related library of fungal decalin-containing diterpenoid pyrones” (Nature Communications, 2020)
